Assay results published in patent US20250230138A1, “COMPOUNDS HAVING A T-STRUCTURE FORMED BY AT LEAST FOUR CYCLES FOR USE IN THE TREATMENT OF CANCER AND OTHER INDICATIONS” (TheRas, Inc., priority 2022, published 2025).
Like-named read-outs stand apart in the source and are kept apart here.

Experiments:
[1] = biological target: Cys242 in human PIK3CA (157-299) (Homo sapiens (Human), UniProt P42336); experiment: Covalent modification assay using MALDI-TOF MS; format: biochemical; conditions: 4 h reaction time point
Cys242 in human PIK3CA (157-299), sequence (P42336 157-299): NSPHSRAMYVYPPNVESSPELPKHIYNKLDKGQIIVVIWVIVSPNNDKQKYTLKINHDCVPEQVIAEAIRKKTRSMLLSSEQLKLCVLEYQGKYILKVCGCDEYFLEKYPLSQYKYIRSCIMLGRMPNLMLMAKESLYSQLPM
Outline: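 PIK3CA (157-299) at 3.33 μM or 1 μM in 20 mM HEPES, 150 mM NaCl, 2 mM MgCl2, pH 7.3 was incubated with compound (from 10 mM DMSO stocks) in the dark at room temperature for 15 min, 30 min, 2 h or 4 h. Linear-mode MALDI-TOF peak heights gave percent modification.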

pAKT in BT474 cells = experiment: Cell-based pAKT HTRF assay in BT474 cells; conditions: BT474 cells, 4 hr incubation, read-out: pAKT inhibition IC50 in BT474 cells
Outline: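 BT474 cells in DMEM/10% FBS were treated the day after seeding with a 9-point, 3-fold compound series from 3 μM (0.25% DMSO) for 4 hr. Lysates were mixed with d2 and Eu cryptate anti-pAKT antibodies and incubated 4-24 h at room temperature. HTRF was read with excitation at 320 nm and emission at 615 nm.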

[2] = 1 μM protein target, 1:5 protein to compound ratio (compounds 853-1279)
[3] = 3.33 μM protein target, 1:7.5 protein to compound ratio (compounds 1-852)

Compound | % of modification [1, 2] | IC50 (pAKT in BT474 cells; Compounds 10-999) [nM] | % of modification [1, 3] | IC50 (pAKT in BT474 cells; Compounds 1000-1279) [nM] | other results
C=CC(=O)N1Cc2cc(-c3nc(-c4ccnnc4)c4ccsc4c3-c3c(F)cc(F)cc3OCCOC)nn2CC1C (centres unmarked) [Compound 948] | A (percent of modification of PIK3CA protein ≥75%) | < 100 |  |  | 
C=CC(=O)N1CCn2nc(-c3nc(-c4cnn(C)c4)c4ccsc4c3-c3c(F)cc(F)cc3OCCO)cc2C1C (centres unmarked) [Compound 538] |  | < 100 | A (percent of modification of PIK3CA protein ≥75%) |  | 
C=CC(=O)N1Cc2cc(-c3nc(-c4ccc5c(cnn5C)c4)c4ccsc4c3-c3c(F)cc(F)cc3OC)nn2C(C)C1 (centres unmarked) [Compound 854] | A (percent of modification of PIK3CA protein ≥75%) | < 100 |  |  | 
C=CC(=O)N1CCn2nc(-c3nc(-c4ccc5ncn(C)c5c4)c4ccsc4c3-c3c(F)cc(F)cc3OC[C@@H](C)O)cc2[C@H]1C [Compound 748] |  | < 100 | A (percent of modification of PIK3CA protein ≥75%) |  | 
C=CC(=O)N1CCc2nc(-c3nc(-c4cnn(C)c4)c4ccsc4c3-c3ccc(F)cc3OCC3CCN(C)C(=O)C3)sc2C1 (centres unmarked) [Compound 221] |  | < 100 | A (percent of modification of PIK3CA protein ≥75%) |  | 
C=CC(=O)N1Cc2cc(-c3nc(-c4cnn(C)c4)c4ccsc4c3-c3c(F)cc(F)cc3OC[C@@H](C)O)nn2C[C@H]1C [Compound 724] |  | < 100 | A (percent of modification of PIK3CA protein ≥75%) |  | 
C=C(F)C(=O)N1CCn2nc(-c3nc(-c4ccc5c(c4)CCN(C)C5)c4ccsc4c3-c3c(F)cc(F)cc3OC(C)C)cc2C1 [Compound 342] |  | < 100 | B (50%<percent of modification <75%) |  | 
C=CC(=O)N1CC(n2cc(-c3nc(-c4cnn(C)c(=O)c4)c4ccsc4c3-c3ccc(F)cc3OC)cn2)C1 [Compound 183] |  | 100 to 1000 | A (percent of modification of PIK3CA protein ≥75%) |  | 
C=CC(=O)N1CCn2nc(-c3nc(-c4ccc5c(c4)CN(C)C(=O)C54CC4)c4ccsc4c3-c3c(F)cc(F)cc3OCCO)cc2[C@H]1C [Compound 1133] | A (percent of modification of PIK3CA protein ≥75%) |  |  | < 100 | 
C=CC(=O)N1CCn2nc(-c3nc(-c4ccc5c(c4)CCN(CC(F)F)CC5)c4ccsc4c3-c3c(F)cc(F)cc3OCCOC)cc2C1C (centres unmarked) [Compound 1122] | A (percent of modification of PIK3CA protein ≥75%) |  |  | < 100 | 
C=C(F)C(=O)N1CCn2nc(-c3nc(-c4ccc5c(c4)CCNC5=O)c4ccsc4c3-c3ccc(F)cc3OCC)cc2C1 [Compound 304] |  | 100 to 1000 | B (50%<percent of modification <75%) |  | 
C=CC(=O)N1Cc2cc(-c3nc(-c4ccc5nn(C)cc5c4)c4ccsc4c3-c3c(F)cc(F)cc3OC[C@@H](C)O)nn2C[C@H]1C [Compound 754] |  | < 100 | A (percent of modification of PIK3CA protein ≥75%) |  | 
C=CC(=O)N1CCc2cc(-c3nc(-c4ccc5c(cnn5C)c4)c4ccsc4c3-c3c(F)cc(F)cc3OCCO)nn2CC1 [Compound 1207, (S)-1-(2-(7-(2,4-difluoro-6-(2-hydroxyethoxy)phenyl)-4-(1-methyl-1H-indazol-5-yl)thieno[3,2-c]pyridin-6-yl)-4,5,7,8-tetrahydro-6H-pyrazolo[1,5-d][1,4]diazepin-6-yl)prop-2-en-1-one] | A (percent of modification of PIK3CA protein ≥75%) |  |  |  | IC50 (pAKT in BT474 cells; Homo sapiens, BT-474, Compounds 1000-1279): < 100 nM
C=CC(=O)N1Cc2cc(-c3nc(-c4ccc5nn(C)cc5c4)c4ccsc4c3-c3c(F)cc(F)cc3OCCO)nn2CC1C (centres unmarked) [Compound 832] |  | < 100 | A (percent of modification of PIK3CA protein ≥75%) |  | 
C=CC(=O)N1CCn2nc(-c3nc(-c4ccc5c(c4)CNC5=O)c4ccsc4c3-c3ccc(F)cc3OC(C)C)cc2C1 [Compound 287] |  | < 100 | A (percent of modification of PIK3CA protein ≥75%) |  | 
C=CC(=O)N1CCc2ccc(-c3nc(-c4cnc(N5CCN(C)CC5)nc4)c4ccsc4c3-c3c(F)cc(F)cc3OCCOC)cc2C1 [Compound 1106] | A (percent of modification of PIK3CA protein ≥75%) |  |  | 100 to 1000 | 

Compound | % of modification [1, 2] | IC50 (pAKT in BT474 cells; Compounds 10-999) [nM] | % of modification [1, 3] | IC50 (pAKT in BT474 cells; Compounds 1000-1279) [nM] | other results
C=CC(=O)N1CCn2nc(-c3nc(-c4ccn5ccnc5c4)c4ccsc4c3-c3c(F)cc(F)cc3OCCOC)cc2C1C (centres unmarked) [Compound 1040] | A (percent of modification of PIK3CA protein ≥75%) |  |  | < 100 | 
C=CC(=O)N1CCn2nc(-c3nc(-c4cnc(N(C)C)nc4)c4ccsc4c3-c3c(F)cc(F)cc3OCCOC)cc2C1C (centres unmarked) [Compound 1037] | A (percent of modification of PIK3CA protein ≥75%) |  |  | < 100 | 
C=CC(=O)N1CCc2ccc(-c3nc(-c4cn(C)cn4)c4ccsc4c3-c3c(F)cc(F)cc3OCCO)cc2C1 (single isomer, unassigned) [Compound 1001] | D (percent of modification <25%) |  |  | 100 to 1000 | 
C=C(F)C(=O)N1CCn2nc(-c3nc(-c4ccc5c(c4)CNC5=O)c4ccsc4c3-c3c(Cl)cccc3OC(C)C)cc2C1 [Compound 472] |  | 100 to 1000 | B (50%<percent of modification <75%) |  | 
C=CC(=O)N1CCc2nc(-c3nc(-c4ccc5c(c4)CCNC5)c4c(c3-c3ccc(F)cc3OC)CCC4)sc2C1 [Compound 96, 1-[2-[4-(4-fluoro-2-methoxy-phenyl)-1-(1,2,3,4-tetrahydroisoquinolin-6-yl)-6,7-dihydro-5H-cyclopenta[c]pyridin-3-yl]-6,7-dihydro-4H-thiazolo[5,4-c]pyridin-5-yl]prop-2-en-1-one] |  |  | A (percent of modification of PIK3CA protein ≥75%) |  | IC50 (pAKT in BT474 cells; Homo sapiens, BT-474, Compounds 10-999): 100 to 1000 nM
C=CC(=O)N1CC(n2cc(-c3nc(-c4ccc(S(N)(=O)=O)cc4)c4ccsc4c3-c3ccc(F)cc3OCCOC)cn2)C1 [Compound 238] |  | < 100 | A (percent of modification of PIK3CA protein ≥75%) |  | 
C=CC(=O)N1Cc2cc(-c3nc(-c4cnn(C)c4)c4ccsc4c3-c3c(F)cc(F)cc3OC(C)C)nn2C[C@H]1C [Compound 457, 1-((R)-2-((S)-7-(2,4-difluoro-6-isopropoxyphenyl)-4-(1-methyl-1H-pyrazol-4-yl)thieno[3,2-c]pyridin-6-yl)-6-methyl-6,7-dihydropyrazolo[1,5-a]pyrazin-5(4H)-yl)prop-2-en-1-one] |  | < 100 | A (percent of modification of PIK3CA protein ≥75%) |  | 
C=CC(=O)N1Cc2cc(-c3nc(-c4cnc5c(c4)CN(C)C5=O)c4ccsc4c3-c3c(F)cc(F)cc3OC(C)C)nn2C[C@H]1C [Compound 513] |  | < 100 | A (percent of modification of PIK3CA protein ≥75%) |  | 
C=CC(=O)N1CCn2nc(-c3nc(N4CCC5(CN(C)C5)C4)c4ccsc4c3-c3c(F)cc(F)cc3OCCOC)cc2C1C (centres unmarked) [Compound 1055] | C (25%≤percent of modification <50%) |  |  | 100 to 1000 | 
C=CC(=O)N1CCn2nc(-c3nc(-c4ccc5c(c4)CCNC5=O)c4ccsc4c3-c3c(F)cc(F)cc3OC)cc2C1C (centres unmarked) [Compound 1120] | A (percent of modification of PIK3CA protein ≥75%) |  |  | < 100 | 
C=CC(=O)N1CCn2nc(-c3nc(-c4ccc5c(c4)CCN(C)C5)c4ccsc4c3-c3c(F)cc(F)cc3OC(C)C)cc2[C@H]1C [Compound 507] |  | < 100 | A (percent of modification of PIK3CA protein ≥75%) |  | 
C=CC(=O)N1Cc2cc(-c3nc(-c4ccc5c(c4)N(C)C(=O)C5)c4ccsc4c3-c3c(F)cc(F)cc3OCCOC)nn2C[C@H]1C [Compound 692] |  | < 100 | A (percent of modification of PIK3CA protein ≥75%) |  | 
C=CC(=O)N1CCn2nc(-c3nc(-c4ccc5c(c4)CN(CC(F)(F)F)CC5)c4ccsc4c3-c3c(F)cc(F)cc3OCCOC)cc2C1C (centres unmarked) [Compound 1252] | A (percent of modification of PIK3CA protein ≥75%) |  |  | < 100 | 
C=CC(=O)N1CC[C@@H](n2cc(-c3nc(-c4cnn(CC(F)F)c4)c4ccsc4c3-c3c(F)cc(F)cc3OC(C)C)cn2)C1 [Compound 387] |  | 100 to 1000 | A (percent of modification of PIK3CA protein ≥75%) |  | 
C=CC(=O)N1CCn2nc(-c3nc(-c4ccc5c(c4)CNC(=O)C54CC4)c4ccsc4c3-c3c(F)cc(F)cc3OCCOC)cc2C1C (centres unmarked) [Compound 1083] | A (percent of modification of PIK3CA protein ≥75%) |  |  | < 100 | 
